# Test results published in publication PMC4459640 (European journal of pharmaceutical sciences : official …, 2014).
# B1: human SULT2A1 (Homo sapiens) (protein)
# chain: MSDDFLWFEGIAFPTMGFRSETLRKVRDEFVIRDEDVIILTYPKSGTNWLAEILCLMHSKGDAKWIQSVPIWERSPWVESEIGYTALSETESPRLFSSHLPIQLFPKSFFSSKAKVIYLMRNPRDVLVSGYFFWKNMKFIKKPKSWEEYFEWFCQGTVLYGSWFDHIHGWMPMREEKNFLLLSYEELKQDTGRTIEKICQFLGKTLEPEELNLILKNSSFQSMKENKMSNYSLLSVDYVVDKAQLLRKGVSGDWKNHFTVAQAEDFDKLFQEKMADLPRELFPWE
# Columns and labels:
# human SULT1A2 = human SULT1A2 (Homo sapiens, UniProt P50226); conditions: pH 7.5
# human SULT1A1 = human SULT1A1 (Homo sapiens, UniProt P50225); conditions: pH 7.5
# [1] = system: HepG2 human hepatoma cells
# UGT2B7 = conditions: cited from earlier work
# opioid receptors [2] = conditions: ref Brown et al., 1985, Frölich et al., 2011, Zuckerman et al., 1999; cited from earlier work
# [3] = human, rabbit, and rat; ref Frölich et al., 2011, Smith et al., 1973, Skarke and Lötsch, 2002; cited from earlier work
# opioid receptors [4] = conditions: ref Brown et al., 1985, Frölich et al., 2011, Zuckerman et al., 1999; cited from earlier work; remark: listed apart in the source
# [5] = ref Brown et al., 1985, Frölich et al., 2011, Zuckerman et al., 1999; cited from earlier work
# [6] = morphine metabolites in human; ref Frölich et al., 2011, Skarke and Lötsch, 2002; cited from earlier work
# not read = substrate: Oc1ccc2c(c1)[C@@]13CCCC[C@@]1(O)[C@@H](C2)N(CC1CCC1)CC3; assay: not read; conditions: other: Michaelis-Menten, pH 7.5
# [7] = substrate: CN1CC[C@]23CCCC[C@H]2[C@H]1Cc1ccc(O)cc13; assay type: in vitro ADME, human; conditions: other: Michaelis-Menten, pH 7.5
# Chain of human SULT1A2 (P50226 whole entry): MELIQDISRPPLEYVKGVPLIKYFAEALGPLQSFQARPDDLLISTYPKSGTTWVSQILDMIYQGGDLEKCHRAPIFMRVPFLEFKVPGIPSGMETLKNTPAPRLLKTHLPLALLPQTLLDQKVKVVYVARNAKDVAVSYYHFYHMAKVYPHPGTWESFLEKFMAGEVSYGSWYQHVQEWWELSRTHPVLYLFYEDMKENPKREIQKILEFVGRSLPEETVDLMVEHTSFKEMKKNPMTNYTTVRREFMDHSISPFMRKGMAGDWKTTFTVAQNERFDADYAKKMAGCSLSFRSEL
# Chain of human SULT1A1 (P50225 whole entry): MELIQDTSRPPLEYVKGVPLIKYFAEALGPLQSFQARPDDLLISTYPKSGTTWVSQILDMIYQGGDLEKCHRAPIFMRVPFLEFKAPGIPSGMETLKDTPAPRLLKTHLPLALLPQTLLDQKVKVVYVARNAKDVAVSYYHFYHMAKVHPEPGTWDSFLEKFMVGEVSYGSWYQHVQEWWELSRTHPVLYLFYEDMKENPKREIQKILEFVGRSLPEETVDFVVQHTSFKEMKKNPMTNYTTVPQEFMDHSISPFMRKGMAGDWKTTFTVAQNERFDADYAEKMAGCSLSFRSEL
molecule,measurement,setting,value
"Oc1ccc2c3c1O[C@H]1[C@H](O)CC[C@@]4(O)[C@@H](C2)N(CC2CC2)CC[C@]314 [6βNaltrexol, 6β-naltrexol]","Specific activity, SULT1A2",human SULT1A2,0.08 ± 0.01 nmol/min/mg
same,"Specific activity, SULT1A1",human SULT1A1,0.21 ± 0.03 nmol/min/mg
"Oc1ccc2c(c1)[C@@]13CCCC[C@@]1(O)[C@@H](C2)N(CC1CCC1)CC3 [Butorphanol, butorphanol]",Efficiency of sulfation by HepG2 cells relative to the other three opioid drugs,[1],more efficiently
"C=CCN1CC[C@]23c4c5ccc(O)c4O[C@H]2[C@@H](O)C=C[C@H]3[C@H]1C5 [Nalorphine, nalorphine]",Efficiency of sulfation by HepG2 cells relative to the other three opioid drugs,[1],more efficiently
"CN1CC[C@]23c4c5ccc(O)c4O[C@H]2C(=O)CC[C@@]3(O)[C@H]1C5 [Oxymorphone, oxymorphone]",Efficiency of sulfation by HepG2 cells relative to the other three opioid drugs,[1],more efficiently
same,Km,UGT2B7,540 to 1360 µM
"CN1CC[C@]23c4c5ccc(OS(=O)(=O)O)c4O[C@H]2[C@@H](O)C=C[C@H]3[C@H]1C5 [morphine-3-sulfate, morphine-3-O-sulfate]",Capability to activate the opioid receptors (ligand activity),opioid receptors [2],low capability to activate the receptors
same,Sulfate metabolite as share of the metabolites from urine,[3],~ 2%
same,Affinity toward opioid receptors,opioid receptors [4],low affinity
CN1CC[C@]23c4c5ccc(O)c4O[C@H]2[C@@H](OS(=O)(=O)O)C=C[C@H]3[C@H]1C5 [morphine-6-sulfate],Analgesic effect compared with morphine,[5],greater analgesic effect than does morphine
same,Capability to activate the opioid receptors (ligand activity),opioid receptors [2],comparable to those of morphine
same,Affinity toward opioid receptors,opioid receptors [4],comparable to those of morphine
CN1CC[C@]23c4c5ccc(O)c4O[C@H]2[C@@H](O[C@@H]2O[C@H](C(=O)O)[C@@H](O)[C@H](O)[C@H]2O)C=C[C@H]3[C@H]1C5 [morphine-glucuronide],Share of metabolite,[6],60–70 % of metabolite
B1,Km,not read,38.95 ± 1.21 µM
same,Vmax,not read,0.00104 µmol/min/mg
same,Km,[7],599.0 ± 60.7 µM
same,Vmax,[7],0.00032 µmol/min/mg
